Measurements reported in patent US20020040053A1, “Antioxidant containing vitamin E metabolite” (priority 2000, published 2002).

Experiments:
[1] = 500IU RRR-α-tocopherol administered to human subject; cited from earlier work
[2] = system: LDL; test: Oxidative degeneration LDL assay using azo-compound (V-70); format: biochemical, human; details: for anti-oxidative activity on LDL (lag-time): added to LDL concentration-dependently, final concentration 60-1000 ng; for lag-time (time during which conjugate diene production was inhibited): final concentration 1 μg, LDL from eight male and female adults, V-70 200 μM, about 70 μg/mL LDL protein, control 88.1±29.4 minutes
Description: Blood collected from human subject was centrifuged at 3000 rpm for 10 minutes to isolate plasma. Next, KBr was added to 1.1 mL of the plasma which was then subjected to density gradient ultra-centrifugation (Single spin differential centrifugation) to collect LDL. After the determination of protein concentration, LDL was prepared by PBS.
In vitro assay of oxidatively denatured LDL was performed according to the method described by Kondo, et al. This method involves use of 2,2′-azobis([…]-2,4-dimethylvaleronitrile; V-70) as the oxidation starter. Final concentration of V-70 was 200 μM for about 70 μg/mL of LDL protein concentration, and production of the conjugate dienes of LDL was assayed at 234 nm for 300 minutes. The time during which conjugate diene production was inhibited was indicated as lag-time. The efficacy of each antioxidants was evaluated by adding the compound and V-70 at the same time and determining the lag-time caused by the compound.

Row | SMILES | plasma α-CEHC concentration [1] [pmol/mL] | anti-oxidative activity on LDL (lag-time) [2] | lag-time (time during which conjugate diene production was inhibited) [2] [min] | extension rate of lag-time (control = 1), FIG. 1 ([2]; final concentration 60 ng, close to 200 pmol/mL (lower concentration)) | anti-oxidative effects on LDL, comparison between compounds ([2]; final concentration 1 μg (higher concentration))
1 | Cc1c(C)c2c(c(C)c1O)CC[C@@](C)(CCC[C@H](C)CCC[C@H](C)CCCC(C)C)O2 [RRR-α-tocopherol] | 200 | – | – | – | –
2 | Cc1c(C)c2c(c(C)c1O)CCC(C)(CCC(=O)O)O2 (stereo not drawn) [α-CEHC, 2,5,7,8-Tetramethyl-2-(β-carboxyethyl)-6-hydroxychromane] | – | prolonged lag-times concentration-dependently | 190.8 ± 65.1 | – | –
3 | Cc1c(O)cc2c(c1C)OC(C)(CCC(=O)O)CC2 (stereo not drawn) [γ-CEHC, 2,7,8-trimethyl-2-(β-carboxyethyl)-6-hydroxychromane] | – | prolonged lag-times concentration-dependently | 263.1 ± 114.8 | greater increase in extension rate of lag-time than those of α-CEHC and Trolox groups | significantly stronger anti-oxidative effects on LDL than α-CEHC did
